From ChEMBL document CHEMBL1201862, “PubChem BioAssay data set” (2004)
Activity calls are given as the source filed them. Unless noted, no cut-off for these calls is given here.

How the values were obtained:
[1] = Luminescence Cell-Based Dose Retest to Confirm Inhibitors of Cancer Stem Cells. [Related pubchem assays (depositor defined):AID2717, AID2721]; assay type: functional; settings: Homo sapiens
[2] = cytotoxicity in HMLE control line with eGFP shRNA, dose response, counter-screen for HMLE_sh_ECad selective toxicity project, cell-based, HMLE_sh_eGFP, luminescence (AID 463074); assay type: functional, Homo sapiens;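 note: HMLE human mammary epithelial cells expressing control shRNA against eGFP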
[3] = system: HeLa; experiment: HeLa cell cytotoxicity, dose response, cytotoxicity control for MITF activator project, CellTiter-Glo luminescence, cherry-pick samples (AID 540259); assay type: functional, cell-based; settings: Homo sapiens
[4] = target: Beta-arrestin-1 (Homo sapiens, UniProt P49407); experiment: inhibitors of arrestin peptide binding to AP2, dose response, biochemical, cherry pick 1, beta2-adaptin appendage, flow cytometry (AID 588783); assay type: functional
[5] = target: Potassium voltage-gated channel subfamily KQT member 2 (Rattus norvegicus, UniProt O88943); experiment: Mode of action assay-Dose response assay for compounds that activate KCNQ2 potassium channels on automated patch clamp. [Related pubchem assays (depositor defined):AID2239, AID2258, AID2287, AID493113]; assay type: functional
[6] = target: T1, Potassium voltage-gated channel subfamily KQT member 4 (Homo sapiens, UniProt P56696); experiment: human KCNQ4 channel current potentiation, dose response, selectivity assay for KCNQ2 activator project, automated patch clamp, CHO cells (AID 493043); assay type: functional, cell-based
[7] = target: Potassium voltage-gated channel subfamily KQT member 2/member 3 (Rattus norvegicus, UniProt O88943+O88944); experiment: Mode of action assay-Dose response assay for KCNQ2 activators in the KCNQ2/KCNQ3 co-expressing cells on automated patch clamp. [Related pubchem assays (depositor defined):AID2239, AID2258, AID2287]; assay type: functional
[8] = target: T1, Potassium voltage-gated channel subfamily KQT member 4; experiment: KCNQ4 channel modulation, potentiation or inhibition, dose response, selectivity assay for KCNQ2 activator project, thallium flux, KCNQ4-expressing cells (AID 504416); assay type: functional, cell-based
[9] = system: H9c2; experiment: cells; assay type: functional, cell-based; settings: Rattus norvegicus, H9c2, Myocardium;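 note: confirmatory concentration-response retest of ultra-high-throughput screening hits for modulation of myocardial damage; cell death induced by hydrogen peroxide oxidative stress; compound pretreatment for 60 min then peroxide exposure for 2 h; potency is for protecting the cells against peroxide damage rather than for killing them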
[10] = target: Beta-2 adrenergic receptor (Homo sapiens, UniProt P07550); experiment: beta2AR agonists driving receptor internalization, dose response, cell-based, FAP fluorogen, flow cytometry, cherry pick 1 (AID 588763); assay type: functional
[11] = target: T2, Hexokinase-1 (Homo sapiens, UniProt P19367); experiment: SAR analysis of small molecule inhibitors of hexokinase domain containing I (HKDC1) in the hexokinase 1 selectivity assay. [Related pubchem assays (depositor defined):AID493160, AID493190]; assay type: functional
T2 sequence (P19367 whole entry): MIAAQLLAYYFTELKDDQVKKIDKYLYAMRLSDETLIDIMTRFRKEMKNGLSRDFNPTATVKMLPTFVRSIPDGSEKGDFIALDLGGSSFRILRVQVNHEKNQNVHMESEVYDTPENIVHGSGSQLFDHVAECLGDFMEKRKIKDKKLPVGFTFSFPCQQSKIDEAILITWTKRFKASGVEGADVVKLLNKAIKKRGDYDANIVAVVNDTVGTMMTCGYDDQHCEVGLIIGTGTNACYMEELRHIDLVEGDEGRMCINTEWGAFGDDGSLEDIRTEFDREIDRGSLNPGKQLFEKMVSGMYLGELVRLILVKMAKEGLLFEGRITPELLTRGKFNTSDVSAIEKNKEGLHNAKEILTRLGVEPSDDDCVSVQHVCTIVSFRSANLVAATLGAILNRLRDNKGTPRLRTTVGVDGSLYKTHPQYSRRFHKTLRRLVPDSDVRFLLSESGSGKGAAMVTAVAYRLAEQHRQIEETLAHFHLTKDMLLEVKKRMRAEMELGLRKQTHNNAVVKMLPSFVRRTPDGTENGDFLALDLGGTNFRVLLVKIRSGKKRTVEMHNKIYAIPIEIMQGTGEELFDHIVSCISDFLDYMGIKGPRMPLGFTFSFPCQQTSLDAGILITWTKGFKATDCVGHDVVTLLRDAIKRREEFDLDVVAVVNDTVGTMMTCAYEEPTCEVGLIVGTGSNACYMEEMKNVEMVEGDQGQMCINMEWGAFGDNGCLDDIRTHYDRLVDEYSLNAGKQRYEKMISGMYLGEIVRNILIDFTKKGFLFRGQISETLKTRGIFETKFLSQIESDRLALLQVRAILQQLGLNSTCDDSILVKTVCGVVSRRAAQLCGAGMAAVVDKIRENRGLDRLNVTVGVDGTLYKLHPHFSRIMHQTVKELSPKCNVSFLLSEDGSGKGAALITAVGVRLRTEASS

[12] = target: T3, Hexokinase HKDC1 (Homo sapiens, UniProt Q2TB90); experiment: SAR analysis of small molecule inhibitors of hexokinase domain containing I (HKDC1). [Related pubchem assays (depositor defined):AID493160, AID493190]; assay type: functional
T3 sequence (Q2TB90 whole entry): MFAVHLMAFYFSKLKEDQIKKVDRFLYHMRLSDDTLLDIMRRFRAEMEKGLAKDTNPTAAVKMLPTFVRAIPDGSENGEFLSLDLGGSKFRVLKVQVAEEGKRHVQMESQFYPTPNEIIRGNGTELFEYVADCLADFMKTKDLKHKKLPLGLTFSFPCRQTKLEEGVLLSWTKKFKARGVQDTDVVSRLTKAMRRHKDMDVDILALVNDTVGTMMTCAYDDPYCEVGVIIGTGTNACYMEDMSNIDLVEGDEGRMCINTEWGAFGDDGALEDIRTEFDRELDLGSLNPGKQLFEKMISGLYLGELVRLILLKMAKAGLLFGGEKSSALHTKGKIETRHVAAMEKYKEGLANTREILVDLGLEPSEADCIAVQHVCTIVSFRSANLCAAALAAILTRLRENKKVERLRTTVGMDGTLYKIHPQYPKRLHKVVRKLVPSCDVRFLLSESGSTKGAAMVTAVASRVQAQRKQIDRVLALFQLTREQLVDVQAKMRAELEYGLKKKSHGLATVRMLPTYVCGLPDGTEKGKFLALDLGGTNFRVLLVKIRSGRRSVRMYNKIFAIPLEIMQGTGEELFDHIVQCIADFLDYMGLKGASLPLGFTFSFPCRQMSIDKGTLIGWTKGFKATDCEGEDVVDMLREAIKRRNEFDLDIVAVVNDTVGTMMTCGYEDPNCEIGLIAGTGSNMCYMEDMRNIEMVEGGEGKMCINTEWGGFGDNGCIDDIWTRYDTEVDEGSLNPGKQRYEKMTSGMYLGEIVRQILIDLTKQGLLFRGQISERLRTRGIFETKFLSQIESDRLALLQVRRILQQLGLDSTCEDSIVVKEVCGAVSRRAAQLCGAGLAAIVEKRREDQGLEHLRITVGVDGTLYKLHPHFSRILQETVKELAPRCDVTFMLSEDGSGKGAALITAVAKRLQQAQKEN

T1 sequence (P56696 whole entry): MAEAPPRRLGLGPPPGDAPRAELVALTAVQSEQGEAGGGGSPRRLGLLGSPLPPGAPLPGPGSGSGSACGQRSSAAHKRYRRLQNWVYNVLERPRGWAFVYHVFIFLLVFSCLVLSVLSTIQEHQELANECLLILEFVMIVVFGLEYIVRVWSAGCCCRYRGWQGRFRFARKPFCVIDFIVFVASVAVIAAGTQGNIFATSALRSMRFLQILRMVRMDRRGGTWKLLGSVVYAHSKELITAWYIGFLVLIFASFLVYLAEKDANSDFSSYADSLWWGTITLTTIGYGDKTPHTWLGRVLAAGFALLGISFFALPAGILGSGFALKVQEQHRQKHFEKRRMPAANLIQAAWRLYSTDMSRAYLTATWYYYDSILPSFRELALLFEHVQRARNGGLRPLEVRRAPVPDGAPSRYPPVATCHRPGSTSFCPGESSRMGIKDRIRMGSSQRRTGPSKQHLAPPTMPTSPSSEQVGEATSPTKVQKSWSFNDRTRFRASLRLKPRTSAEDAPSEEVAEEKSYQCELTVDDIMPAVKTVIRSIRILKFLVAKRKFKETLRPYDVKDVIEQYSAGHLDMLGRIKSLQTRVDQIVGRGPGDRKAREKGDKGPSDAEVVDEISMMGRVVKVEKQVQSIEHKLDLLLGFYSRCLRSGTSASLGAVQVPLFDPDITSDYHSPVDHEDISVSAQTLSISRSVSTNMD
Sequence of Beta-arrestin-1 (P49407 whole entry): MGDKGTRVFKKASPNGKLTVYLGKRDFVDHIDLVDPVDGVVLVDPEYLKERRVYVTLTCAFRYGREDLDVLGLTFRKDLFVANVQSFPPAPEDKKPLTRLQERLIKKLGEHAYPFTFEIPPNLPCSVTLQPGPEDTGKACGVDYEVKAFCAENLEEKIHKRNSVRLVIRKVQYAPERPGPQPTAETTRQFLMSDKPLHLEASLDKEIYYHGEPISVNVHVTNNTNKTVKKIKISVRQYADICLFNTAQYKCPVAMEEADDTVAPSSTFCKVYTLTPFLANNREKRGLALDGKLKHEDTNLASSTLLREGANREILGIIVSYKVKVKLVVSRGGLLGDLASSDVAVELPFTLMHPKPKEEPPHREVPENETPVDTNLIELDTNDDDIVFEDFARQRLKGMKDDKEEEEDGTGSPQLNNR
Sequence of Beta-2 adrenergic receptor (P07550 whole entry, the tested form may be a part): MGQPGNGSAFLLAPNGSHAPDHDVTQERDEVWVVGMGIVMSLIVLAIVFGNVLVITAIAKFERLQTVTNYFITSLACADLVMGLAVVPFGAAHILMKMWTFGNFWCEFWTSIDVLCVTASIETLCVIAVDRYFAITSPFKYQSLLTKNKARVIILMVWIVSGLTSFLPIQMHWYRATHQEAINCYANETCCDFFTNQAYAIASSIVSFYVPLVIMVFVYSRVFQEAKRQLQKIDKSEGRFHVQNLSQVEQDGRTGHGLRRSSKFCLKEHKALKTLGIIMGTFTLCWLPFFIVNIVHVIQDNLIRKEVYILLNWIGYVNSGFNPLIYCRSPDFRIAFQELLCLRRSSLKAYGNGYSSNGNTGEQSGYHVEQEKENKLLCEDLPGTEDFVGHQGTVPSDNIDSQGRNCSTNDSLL
Sequence of Potassium voltage-gated channel subfamily KQT member 2/member 3 (O88943 whole entry): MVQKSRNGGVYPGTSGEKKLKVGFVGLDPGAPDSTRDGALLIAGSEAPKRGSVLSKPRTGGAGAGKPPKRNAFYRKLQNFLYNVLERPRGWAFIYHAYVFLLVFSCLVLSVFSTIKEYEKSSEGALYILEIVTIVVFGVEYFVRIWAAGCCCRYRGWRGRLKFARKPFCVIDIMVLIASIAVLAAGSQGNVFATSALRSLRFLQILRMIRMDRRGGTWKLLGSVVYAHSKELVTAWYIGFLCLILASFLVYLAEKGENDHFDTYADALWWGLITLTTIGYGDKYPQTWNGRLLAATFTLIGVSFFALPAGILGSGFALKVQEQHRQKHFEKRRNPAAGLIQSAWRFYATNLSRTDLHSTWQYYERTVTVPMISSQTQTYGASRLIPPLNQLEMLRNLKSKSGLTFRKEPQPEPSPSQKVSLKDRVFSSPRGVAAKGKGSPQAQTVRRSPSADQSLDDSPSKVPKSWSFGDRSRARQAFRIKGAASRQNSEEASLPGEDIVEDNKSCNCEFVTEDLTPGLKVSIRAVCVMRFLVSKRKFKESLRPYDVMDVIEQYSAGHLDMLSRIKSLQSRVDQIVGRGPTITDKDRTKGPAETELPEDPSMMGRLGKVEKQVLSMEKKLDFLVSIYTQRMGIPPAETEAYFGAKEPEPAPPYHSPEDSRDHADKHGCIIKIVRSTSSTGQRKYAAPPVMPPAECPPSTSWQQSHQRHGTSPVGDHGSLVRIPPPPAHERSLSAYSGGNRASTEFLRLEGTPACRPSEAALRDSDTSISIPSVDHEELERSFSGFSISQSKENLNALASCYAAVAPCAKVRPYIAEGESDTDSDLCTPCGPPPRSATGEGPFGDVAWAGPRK
Sequence of Potassium voltage-gated channel subfamily KQT member 2/member 3 (O88944 whole entry): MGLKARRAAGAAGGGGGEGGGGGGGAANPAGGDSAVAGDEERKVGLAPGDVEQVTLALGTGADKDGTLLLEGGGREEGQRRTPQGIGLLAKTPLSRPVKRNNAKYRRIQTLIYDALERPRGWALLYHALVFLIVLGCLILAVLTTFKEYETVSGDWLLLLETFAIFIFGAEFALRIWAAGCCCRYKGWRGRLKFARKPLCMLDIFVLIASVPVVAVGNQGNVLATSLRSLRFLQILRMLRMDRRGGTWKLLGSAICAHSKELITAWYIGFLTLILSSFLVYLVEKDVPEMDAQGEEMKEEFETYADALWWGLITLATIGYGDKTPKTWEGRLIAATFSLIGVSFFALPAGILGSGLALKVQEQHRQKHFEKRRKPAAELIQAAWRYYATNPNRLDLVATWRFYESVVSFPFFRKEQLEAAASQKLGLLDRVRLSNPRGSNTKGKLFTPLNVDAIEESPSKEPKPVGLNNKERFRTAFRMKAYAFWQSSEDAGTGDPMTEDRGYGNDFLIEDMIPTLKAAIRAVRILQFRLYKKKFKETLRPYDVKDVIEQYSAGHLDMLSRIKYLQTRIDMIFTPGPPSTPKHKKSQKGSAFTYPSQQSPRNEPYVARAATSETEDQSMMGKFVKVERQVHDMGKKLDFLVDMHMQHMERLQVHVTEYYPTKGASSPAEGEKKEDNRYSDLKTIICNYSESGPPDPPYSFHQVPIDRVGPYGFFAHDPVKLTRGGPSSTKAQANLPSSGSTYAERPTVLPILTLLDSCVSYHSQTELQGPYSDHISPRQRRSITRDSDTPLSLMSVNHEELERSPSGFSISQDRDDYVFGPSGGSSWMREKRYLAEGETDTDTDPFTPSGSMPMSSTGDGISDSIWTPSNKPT
Sequence of Potassium voltage-gated channel subfamily KQT member 2 (O88943 whole entry): as the sequence (O88943 whole entry) above

Q: For `O=C(CSc1nc(-c2ccco2)cc(C(F)(F)F)n1)Nc1ccccc1C(F)(F)F`, which AC50 [1] is on record?
A: Its AC50 is 5.71 µM (active).

Q: And the AC50 [2]?
A: The AC50 was 23.1 µM (active).

Q: Which AC50 [3] does the source give for `O=C(c1cccs1)N1CCn2c1nc1ccccc12` here?
A: The AC50 was 115 µM (active).

Q: With `Cc1ccc(C2Nc3cccc4cccc(c34)N2)s1` as the compound, how does the IC50 [4] read?
A: Its IC50 is 15.3 µM (inactive).

Q: What does the source list for `Cc1cc(C)c(NC(=O)CC(C)(C)C)c(Cl)c1`?
A: EC50 [5]: 0.867 µM (active); EC50 [6]: 15.3 µM (active); EC50 [7]: 0.625 µM (active); EC50 [8]: 8.78 µM (active)

Q: What does the source list for `CC(=O)Nc1ccc(S(=O)(=O)N(Cc2ccco2)Cc2cc3ccccc3nc2O)cc1`?
A: IC50 [9]: > 79 µM (inactive); EC50 [10]: 0.00464 µM (active)

Q: With `O=c1c2ccccc2nc(/C=C/c2cccnc2)n1Cc1cccc(F)c1` as the compound, how does the IC50 [11] read?
A: Its IC50 is > 80 µM (inactive).

Q: What about the IC50 [12] of the same compound?
A: The IC50 was > 80 µM (inactive).
